From US20090069320A1, “Substituted 4-Amino-Quinazoline Compounds with Metabotropic Glutamate Receptor Regulating Activity and Uses Thereof” (Gruenenthal GmbH, priority 2006, published 2009)
Counter-ions that a name gives are not always drawn.

Biological target: T1, mGluR5 receptor (Sus scrofa, UniProt I3LUI7)
T1 construct: 450 μg of protein from brain homogenate with 5 nM ^3[H]-MPEP; from tissue; host or cells: pig brain halves without medulla, cerebellum and pons
Test: [3H]-MPEP mGluR5 receptor binding assay (pig brain homogenate)
Conditions: 5 nM [3H]-MPEP, read-out: IC50 mGluR5 Receptor (pig) [^3H]-MPEP Bond
Outline: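 Compounds at 10 μM competed with 5 nM [3H]-MPEP for binding to pig brain membranes (450 μg protein) for 60 min at room temperature in pH 8.0 Hepes buffer. Bound radioactivity was collected on glass-fibre filters and read by β-counting, with 10 μM unlabelled MPEP giving non-specific binding.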

T1 sequence (I3LUI7 19-1212): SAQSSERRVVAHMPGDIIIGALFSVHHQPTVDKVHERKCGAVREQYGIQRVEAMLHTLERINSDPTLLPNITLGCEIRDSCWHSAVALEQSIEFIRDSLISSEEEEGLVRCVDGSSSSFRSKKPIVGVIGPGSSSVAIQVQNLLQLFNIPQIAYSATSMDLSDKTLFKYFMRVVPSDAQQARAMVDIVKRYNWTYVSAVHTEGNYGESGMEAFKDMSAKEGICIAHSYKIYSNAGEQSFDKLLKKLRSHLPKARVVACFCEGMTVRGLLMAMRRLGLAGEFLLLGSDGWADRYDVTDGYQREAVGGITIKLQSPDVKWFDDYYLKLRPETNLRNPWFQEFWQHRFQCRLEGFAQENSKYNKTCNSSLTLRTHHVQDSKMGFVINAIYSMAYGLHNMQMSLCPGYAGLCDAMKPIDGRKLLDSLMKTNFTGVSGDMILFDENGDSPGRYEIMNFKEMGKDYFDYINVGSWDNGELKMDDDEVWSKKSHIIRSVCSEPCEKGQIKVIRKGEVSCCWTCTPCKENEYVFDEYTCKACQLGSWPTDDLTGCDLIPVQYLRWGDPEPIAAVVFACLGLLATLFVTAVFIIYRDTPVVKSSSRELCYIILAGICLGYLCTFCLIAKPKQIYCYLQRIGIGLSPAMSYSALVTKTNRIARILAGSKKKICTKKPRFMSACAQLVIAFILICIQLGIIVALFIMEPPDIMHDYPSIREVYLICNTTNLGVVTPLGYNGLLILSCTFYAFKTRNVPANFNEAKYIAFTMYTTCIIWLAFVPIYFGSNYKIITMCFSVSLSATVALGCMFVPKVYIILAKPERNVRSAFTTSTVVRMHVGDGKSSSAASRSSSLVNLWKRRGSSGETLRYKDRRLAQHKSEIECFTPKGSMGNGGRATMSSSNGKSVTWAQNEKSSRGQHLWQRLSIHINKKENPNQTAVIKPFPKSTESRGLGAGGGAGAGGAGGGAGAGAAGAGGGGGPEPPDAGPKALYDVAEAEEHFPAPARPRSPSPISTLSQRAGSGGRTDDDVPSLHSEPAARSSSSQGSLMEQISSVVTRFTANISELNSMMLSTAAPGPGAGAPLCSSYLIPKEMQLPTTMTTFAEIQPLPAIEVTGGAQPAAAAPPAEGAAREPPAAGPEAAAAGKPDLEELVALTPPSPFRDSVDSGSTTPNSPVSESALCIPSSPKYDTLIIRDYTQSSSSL

Point of comparison: `O=C(CCc1ccccc1)N(Cc1cccc(-c2ccc3ncnc(NC4CC4)c3c2)c1)C1CC1` [Example 263, N-cyclopropyl-N-[3-(4-cyclopropylamino-quinazolin-6-yl)-benzyl]-3-phenyl-propionamide], IC50 1.7 µM. Against it:
- O=C1C2CCCCC2C(=O)N1Cc1cccc(-c2ccc3ncnc(NC4CC4)c3c2)c1 (centres unmarked) [Example 242, 2-[3-(4-cyclopropylamino-quinazolin-6-yl)-benzyl]-hexahydro-isoindole-1,3-dione hydrochloride] — 1.8-fold higher, 3.08 µM
- O=C(c1ccccc1)N(Cc1c(F)ccc(-c2ccc3ncnc(NC4CC4)c3c2)c1F)C1CC1 [Example 244, N-cyclopropyl-N-[3-(4-cyclopropylamino-quinazolin-6-yl)-2,6-difluoro-benzyl]-benzamide] — 7.7-fold lower, 0.22 µM
- CS(=O)(=O)N(Cc1c(F)ccc(-c2ccc3ncnc(NC4CC4)c3c2)c1F)C1CC1 [Example 246, N-cyclopropyl-N-(3-(4-(cyclopropylamino)quinazolin-6-yl)-2,6-difluorobenzyl)methane sulfonamide] — 4.9-fold lower, 0.35 µM
- CC(C)NC(=O)N(Cc1cccc(-c2ccc3ncnc(NC4CC4)c3c2)c1)C1CC1 [Example 247, 1-cyclopropyl-1-[3-(4-cyclopropylamino-quinazolin-6-yl)-benzyl]-3-isopropyl-urea] — 4.3-fold higher, 7.34 µM
- O=C(c1cccnc1)N(Cc1cccc(-c2ccc3ncnc(NC4CC4)c3c2)c1)C1CC1 [Example 248, N-cyclopropyl-N-[3-(4-cyclopropylamino-quinazolin-6-yl)-benzyl]-nicotinamide] — 1.9-fold higher, 3.15 µM
- CC(=O)N(Cc1c(F)ccc(-c2ccc3ncnc(NC4CC4)c3c2)c1F)C1CC1 [Example 249, N-cyclopropyl-N-[3-(4-cyclopropylamino-quinazolin-6-yl)-2,6-difluoro-benzyl]-acetamide] — 12-fold lower, 0.14 µM
- COCC(=O)N(Cc1cccc(-c2ccc3ncnc(NC4CC4)c3c2)c1)C1CC1 [Example 252, N-cyclopropyl-N-[3-(4-cyclopropylamino-quinazolin-6-yl)-benzyl]-2-methoxy-acetamide] — 1.8-fold lower, 0.92 µM
- O=C(c1ccno1)N(Cc1cccc(-c2ccc3ncnc(NC4CC4)c3c2)c1)C1CC1 [Example 253, isoxazole-5-carboxylic acid cyclopropyl-[3-(4-cyclopropylamino-quinazolin-6-yl)-benzyl]-amide] — within 1.5-fold, 1.31 µM
- O=C(c1c(F)c(F)c(F)c(F)c1F)N(Cc1cccc(-c2ccc3ncnc(NC4CC4)c3c2)c1)C1CC1 [Example 254, N-cyclopropyl-N-[3-(4-cyclopropylamino-quinazolin-6-yl)-benzyl]-2,3,4,5,6-pentafluoro-benzamide] — 2.8-fold lower, 0.6 µM
- O=C(C=Cc1ccccc1)N(Cc1cccc(-c2ccc3ncnc(NC4CC4)c3c2)c1)C1CC1 [Example 255, N-cyclopropyl-N-[3-(4-cyclopropylamino-quinazolin-6-yl)-benzyl]-3-phenyl-acrylamide] — within 1.5-fold, 1.85 µM
- CCCCC(=O)N(Cc1cccc(-c2ccc3ncnc(NC4CC4)c3c2)c1)C1CC1 [Example 256, pentanoic acid cyclopropyl-[3-(4-cyclopropylamino-quinazolin-6-yl)-benzyl]-amide] — within 1.5-fold, 1.47 µM
- O=C(c1ccncc1)N(Cc1cccc(-c2ccc3ncnc(NC4CC4)c3c2)c1)C1CC1 [Example 257, N-cyclopropyl-N-[3-(4-cyclopropylamino-quinazolin-6-yl)-benzyl]-isonicotinamide] — 2.3-fold lower, 0.74 µM
- COc1ccc(-c2ccc3ncnc(NC4CC4)c3c2)cc1CN(C(C)=O)C1CC1 [Example 259, N-cyclopropyl-N-[5-(4-cyclopropylamino-quinazolin-6-yl)-2-methoxy-benzyl]-acetamide] — 5.9-fold lower, 0.29 µM
- O=C(Cc1ccccc1)N(Cc1cccc(-c2ccc3ncnc(NC4CC4)c3c2)c1)C1CC1 [Example 264, N-cyclopropyl-N-[3-(4-cyclopropylamino-quinazolin-6-yl)-benzyl]-2-phenyl-acetamide] — within 1.5-fold, 1.52 µM
- O=C(C1CCCCC1)N(Cc1cccc(-c2ccc3ncnc(NC4CC4)c3c2)c1)C1CC1 [Example 265, N-cyclopropyl-N-(3-(4-(cyclopropylamino)quinazolin-6-yl)benzyl)cyclohexane carboxamide] — within 1.5-fold, 1.89 µM
- CC(C)(C)C(=O)N(Cc1cccc(-c2ccc3ncnc(NC4CC4)c3c2)c1)C1CC1 [Example 266, N-cyclopropyl-N-(3-(4-(cyclopropylamino)quinazolin-6-yl)benzyl)pivalamide] — within 1.5-fold, 1.27 µM
- COc1ccc(CN(C(=O)c2ccccc2)C2CC2)cc1-c1ccc2ncnc(NC3CC3)c2c1 [Example 267, N-cyclopropyl-N-(3-(4-(cyclopropylamino)quinazolin-6-yl)-4-methoxybenzyl)benzamide hydrochloride] — 3.9-fold higher, 6.55 µM
- COc1ccc(CN(C(=O)c2ccccc2)C2CC2)cc1-c1ccc2ncnc(NC3CC3)c2c1 [Example 268, N-cyclopropyl-N-(3-(4-(cyclopropylamino)quinazolin-6-yl)-4-methoxybenzyl)benzamide] — 3.2-fold higher, 5.41 µM
- CN(c1ncnc2ccc(-c3cccc(CN(C(=O)c4ccccn4)C4CC4)c3)cc12)C1CC1 [Example 272, N-cyclopropyl-N-(3-(4-(cyclopropyl(methyl)amino)quinazolin-6-yl)benzyl)picolinamide] — 9-fold higher, 15.3 µM
- O=C(c1ccccc1)N(Cc1cccc(-c2ccc3ncnc(NC4CC4)c3c2)c1)C1CC1 [Example 274, N-cyclopropyl-N-(3-(4-(cyclopropylamino)quinazolin-6-yl)benzyl)benzamide] — 2-fold lower, 0.86 µM
- O=C(c1ccccn1)N(Cc1cccc(-c2ccc3ncnc(NC4CC4)c3c2)c1)C1CC1 [Example 275, N-cyclopropyl-N-(3-(4-(cyclopropylamino)quinazolin-6-yl)benzyl) picolinamide] — within 1.5-fold, 1.38 µM
- N#CCC(=O)N(Cc1cc(-c2ccc3ncnc(NC4CC4)c3c2)ccc1F)C1CC1 [Example 277, 2-cyano-N-cyclopropyl-N-(5-(4-(cyclopropylamino)quinazolin-6-yl)-2-fluorobenzyl)acetamide] — 42-fold lower, 0.04 µM
- O=C1CCCC(=O)N1Cc1cc(-c2ccc3ncnc(NC4CC4)c3c2)ccc1F [Example 278, 1-(5-(4-(cyclopropylamino)quinazolin-6-yl)-2-fluorobenzyl)piperidine-2,6-dione] — 4.9-fold lower, 0.35 µM
- CC(=O)N(Cc1cc(-c2ccc3ncnc(NC4CC4)c3c2)ccc1F)C(C)(C)C [Example 279, N-tert-butyl-N-(5-(4-(cyclopropylamino)quinazolin-6-yl)-2-fluorobenzyl)acetamide] — 5.5-fold higher, 9.42 µM
- N#CCC(=O)N(Cc1cc(-c2ccc3ncnc(NC4CC4)c3c2)ccc1F)C1CC1 [Example 281, 2-cyano-N-cyclopropyl-N-(5-(4-(cyclopropylamino)quinazolin-6-yl)-2-fluorobenzyl)acetamide hydrochloride] — 57-fold lower, 0.03 µM
- O=C(CC(F)(F)F)N(Cc1cc(-c2ccc3ncnc(NC4CC4)c3c2)ccc1F)C1CC1 [Example 282, N-cyclopropyl-N-(5-(4-(cyclopropylamino)quinazolin-6-yl)-2-fluorobenzyl)-3,3,3-trifluoropropanamide] — 34-fold lower, 0.05 µM
- O=C(CCl)N(Cc1cc(-c2ccc3ncnc(NC4CC4)c3c2)ccc1F)C1CC1 [Example 283, 2-chloro-N-cyclopropyl-N-(5-(4-(cyclopropylamino)quinazolin-6-yl)-2-fluorobenzyl)acetamide] — 5.9-fold lower, 0.29 µM
- CCCCNc1ncnc2ccc(-c3cccc(CN4C(=O)CCC4=O)c3)cc12 [Example 286, 1-(3-(4-(butylamino)quinazolin-6-yl)benzyl)pyrrolidine-2,5-dione hydrochloride] — 4.4-fold lower, 0.39 µM
- O=C1CCC(=O)N1Cc1cccc(-c2ccc3ncnc(NC4CCCC4)c3c2)c1 [Example 287, 1-(3-(4-(cyclopentylamino)quinazolin-6-yl)benzyl)pyrrolidine-2,5-dione hydrochloride] — 28-fold lower, 0.06 µM
- c1cc(CNC2CC2)cc(-c2ccc3ncnc(NC4CC4)c3c2)c1 [Example 294, N-cyclopropyl-6-(3-((cyclopropylamino)methyl)-phenyl)quinazoline-4-amine] — 5.1-fold higher, 8.67 µM
- COc1ccc(-c2ccc3ncnc(NC4CC4)c3c2)cc1CNC1CC1 [Example 298, N-cyclopropyl-6-(3-((cyclopropylamino)methyl)-4-methoxyphenyl)quinazoline-4-amine] — 6.4-fold higher, 10.8 µM
- Fc1ccc(-c2ccc3ncnc(NC4CC4)c3c2)cc1CNC1CC1 [Example 299, N-cyclopropyl-6-(3-((cyclopropylamino)methyl)-4-fluorophenyl)quinazoline-4-amine] — within 1.5-fold, 2.01 µM

Same assay, conditions: 10 μM compound, 5 nM [3H]-MPEP, read-out: % Inhibition of mGluR5 Receptor (pig) [^3H]-MPEP Bond at 10 μM

Point of comparison: `O=C1CC2(CCCC2)CC(=O)N1Cc1cccc(-c2ccc3ncnc(NC4CC4)c3c2)c1` [Example 243, 8-[3-(4-cyclopropylamino-quinazolin-6-yl)-benzyl]-8-aza-spiro[4.5]decane-7,9-dione; hydrochloride], inhibition at 10 µM 39%. Against it:
- CS(=O)(=O)N(Cc1cc(-c2ccc3ncnc(NC4CC4)c3c2)ccc1F)C1CC1 [Example 251, N-cyclopropyl-N-(5-(4-(cyclopropylamino)quinazolin-6-yl)-2-fluorobenzyl)methane sulfonamide] — lower, 30%
- O=C1CCC(=O)N1Cc1cccc(-c2ccc3nc(NCc4ccccc4)nc(NC4CC4)c3c2)c1 [Example 291, 1-(3-(2-(benzylamino)-4-(cyclopropylamino)quinazolin-6-yl)benzyl)pyrrolidine-2,5-dione] — higher, 49%
- c1cc(CN2CCc3ccccc32)cc(-c2ccc3ncnc(NC4CC4)c3c2)c1 [Example 292, N-cyclopropyl-6-(3-(indolin-1-ylmethyl)phenyl)quinazoline-4-amine] — higher, 95%
- CC(C)(C)OC(=O)NCc1cccc(-c2ccc3ncnc(NC4CC4)c3c2)c1 [Example 295, tert-butyl 3-(4-(cyclopropylamino)quinazolin-6-yl)benzylcarbamate] — lower, 0%
